Reference: patent US10815222B2, “Compounds for use in the treatment of kinetoplastid infection” (C.N.C.C.S. S.c.a.r.l. COLLEZIONE NAZIONALE DEI COMPOSTI …, priority 2016, dated 2020)

Tested on: Bloodstream form of Trypanosoma brucei, strain Lister 427
Experiment: Trypanosoma brucei growth inhibition assay (CellTiter-Glo, 24 h)
Type: cell-based
Conditions: Trypanosoma brucei; T. Brucei Growth Inibition Assay, class symbols; read-out: T. Brucei GI EC50
How it was run: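 Growth read-out was CellTiter-Glo luminescence after 24 h at 37 °C incubation of 1500 bloodstream-form Lister 427 trypanosomes per well with compound, in supplemented IMDM containing 10% FBS and at most 0.25% DMSO.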

SMILES | EC50
COc1ccc2nc(C(F)(F)F)n(CC(=O)N3CC[C@@H](N(C)Cc4ccn(C)n4)C[C@H]3c3ncc(-c4cc5ccccc5nc4OC)[nH]3)c2c1 [2-(6-methoxy-2-(trifluoromethyl)-1H-benzo[d]imidazol-1-yl)-1-((2S,4R)-2-(5-(2-methoxyquinolin-3-yl)-1H-imidazol-2-yl)-4-(methyl((1-methyl-1H-pyrazol-3-yl)methyl)amino)piperidin-1-yl)ethan-1-one] | < 100 nM
COc1ccc2nc(C(F)(F)F)n(CC(=O)N3CC[C@H](NCc4cncn4C)C[C@H]3c3ncc(-c4cc5ccccc5nc4OC)[nH]3)c2c1 [2-(6-methoxy-2-(trifluoromethyl)-1H-benzo[d]imidazol-1-yl)-1-((2S,4S)-2-(5-(2-methoxyquinolin-3-yl)-1H-imidazol-2-yl)-4-(((1-methyl-1H-imidazol-5-yl)methyl)amino)piperidin-1-yl)ethan-1-one] | < 100 nM
COc1ccc2nc(C(F)(F)F)n(CC(=O)N3CC[C@H](NCc4ccn(C)n4)C[C@H]3c3ncc(-c4cc5ccccc5nc4OC)[nH]3)c2c1 [2-(6-methoxy-2-(trifluoromethyl)-1H-benzo[d]imidazol-1-yl)-1-((2S,4S)-2-(5-(2-methoxyquinolin-3-yl)-1H-imidazol-2-yl)-4-(((1-methyl-1H-pyrazol-3-yl)methyl)amino)piperidin-1-yl)ethan-1-one] | < 100 nM
COc1ccc2nc(C(F)(F)F)n(CC(=O)N3CC[C@H](N[C@@H]4CCOC4)C[C@H]3c3ncc(-c4cc5ccccc5nc4OC)[nH]3)c2c1 [2-(6-methoxy-2-(trifluoromethyl)-1H-benzo[d]imidazol-1-yl)-1-((2S,4S)-2-(5-(2-methoxyquinolin-3-yl)-1H-imidazol-2-yl)-4-(((R)-tetrahydrofuran-3-yl)amino)piperidin-1-yl)ethan-1-one] | < 100 nM
COc1ccc2nc(C(F)(F)F)n(CC(=O)N3CC[C@H](N[C@H]4CCOC4)C[C@H]3c3ncc(-c4cc5ccccc5nc4OC)[nH]3)c2c1 [2-(6-methoxy-2-(trifluoromethyl)-1H-benzo[d]imidazol-1-yl)-1-((2S,4S)-2-(5-(2-methoxyquinolin-3-yl)-1H-imidazol-2-yl)-4-(((S)-tetrahydrofuran-3-yl)amino)piperidin-1-yl)ethan-1-one] | < 100 nM
COc1ccc2nc(C(F)(F)F)n(CC(=O)N3CC[C@H](NCC4CCOC4)C[C@H]3c3ncc(-c4cc5ccccc5nc4OC)[nH]3)c2c1 (stereo partly drawn) [2-(6-methoxy-2-(trifluoromethyl)-1H-benzo[d]imidazol-1-yl)-1-((2S,4S)-2-(5-(2-methoxyquinolin-3-yl)-1H-imidazol-2-yl)-4-(((tetrahydrofuran-3-yl)methyl)amino)piperidin-1-yl)ethan-1-one] | < 100 nM
COc1ccc2nc(C(F)(F)F)n(CC(=O)N3CC[C@H](NCC4COC4)C[C@H]3c3ncc(-c4cc5ccccc5nc4OC)[nH]3)c2c1 [2-(6-methoxy-2-(trifluoromethyl)-1H-benzo[d]imidazol-1-yl)-1-((2S,4S)-2-(5-(2-methoxyquinolin-3-yl)-1H-imidazol-2-yl)-4-((oxetan-3-ylmethyl)amino)piperidin-1-yl)ethan-1-one] | < 100 nM
COc1ccc2nc(C(F)(F)F)n(CC(=O)N3CC[C@H](NCc4cnccn4)C[C@H]3c3ncc(-c4cc5ccccc5nc4OC)[nH]3)c2c1 [2-(6-methoxy-2-(trifluoromethyl)-1H-benzo[d]imidazol-1-yl)-1-((2S,4S)-2-(5-(2-methoxyquinolin-3-yl)-1H-imidazol-2-yl)-4-((pyrazin-2-ylmethyl)amino)piperidin-1-yl)ethan-1-one] | < 100 nM
COc1ccc2nc(C(F)(F)F)n(CC(=O)N3CC[C@H](NCc4ccccn4)C[C@H]3c3ncc(-c4cc5ccccc5nc4OC)[nH]3)c2c1 [2-(6-methoxy-2-(trifluoromethyl)-1H-benzo[d]imidazol-1-yl)-1-((2S,4S)-2-(5-(2-methoxyquinolin-3-yl)-1H-imidazol-2-yl)-4-((pyridin-2-ylmethyl)amino)piperidin-1-yl)ethan-1-one] | < 100 nM
COc1ccc2nc(C(F)(F)F)n(CC(=O)N3CC[C@H](NC4CCOC4)C[C@H]3c3ncc(-c4cc5ccccc5nc4OC)[nH]3)c2c1 (stereo partly drawn) [2-(6-methoxy-2-(trifluoromethyl)-1H-benzo[d]imidazol-1-yl)-1-((2S,4S)-2-(5-(2-methoxyquinolin-3-yl)-1H-imidazol-2-yl)-4-((tetrahydrofuran-3-yl)amino)piperidin-1-yl)ethan-1-one] | < 100 nM
COc1ccc2nc(C(F)(F)F)n(CC(=O)N3CC[C@H](NCc4nccs4)C[C@H]3c3ncc(-c4cc5ccccc5nc4OC)[nH]3)c2c1 [2-(6-methoxy-2-(trifluoromethyl)-1H-benzo[d]imidazol-1-yl)-1-((2S,4S)-2-(5-(2-methoxyquinolin-3-yl)-1H-imidazol-2-yl)-4-((thiazol-2-ylmethyl)amino)piperidin-1-yl)ethan-1-one] | < 100 nM
COc1ccc2nc(C(F)(F)F)n(CC(=O)N3CC[C@H](N(C)C4CCOC4)C[C@H]3c3ncc(-c4cc5ccccc5nc4OC)[nH]3)c2c1 (stereo partly drawn) [2-(6-methoxy-2-(trifluoromethyl)-1H-benzo[d]imidazol-1-yl)-1-((2S,4S)-2-(5-(2-methoxyquinolin-3-yl)-1H-imidazol-2-yl)-4-(methyl(tetrahydrofuran-3-yl)amino)piperidin-1-yl)ethan-1-one] | < 100 nM
COc1ccc2nc(C(F)(F)F)n(CC(=O)N3CC[C@H](N(C)Cc4nccs4)C[C@H]3c3ncc(-c4cc5ccccc5nc4OC)[nH]3)c2c1 [2-(6-methoxy-2-(trifluoromethyl)-1H-benzo[d]imidazol-1-yl)-1-((2S,4S)-2-(5-(2-methoxyquinolin-3-yl)-1H-imidazol-2-yl)-4-(methyl(thiazol-2-ylmethyl)amino)piperidin-1-yl)ethan-1-one] | < 100 nM
COc1ccc2nc(C(F)(F)F)n(CC(=O)N3CC[C@H](NC4COC4)C[C@H]3c3ncc(-c4cc5ccccc5nc4OC)[nH]3)c2c1 [2-(6-methoxy-2-(trifluoromethyl)-1H-benzo[d]imidazol-1-yl)-1-((2S,4S)-2-(5-(2-methoxyquinolin-3-yl)-1H-imidazol-2-yl)-4-(oxetan-3-ylamino)piperidin-1-yl)ethan-1-one] | < 100 nM
COc1ccc2nc(C(F)(F)F)n(CC(=O)N3CC[C@H](N4CCCC4)C[C@H]3c3ncc(-c4cc5ccccc5nc4OC)[nH]3)c2c1 [2-(6-methoxy-2-(trifluoromethyl)-1H-benzo[d]imidazol-1-yl)-1-((2S,4S)-2-(5-(2-methoxyquinolin-3-yl)-1H-imidazol-2-yl)-4-(pyrrolidin-1-yl)piperidin-1-yl)ethan-1-one] | < 100 nM
COc1ccc2nc(C(F)(F)F)n(CC(=O)N3CC[C@H](N4CCOCC4)C[C@H]3c3ncc(-c4cc5ccccc5nc4OC)[nH]3)c2c1 [2-(6-methoxy-2-(trifluoromethyl)-1H-benzo[d]imidazol-1-yl)-1-((2S,4S)-2-(5-(2-methoxyquinolin-3-yl)-1H-imidazol-2-yl)-4-morpholinopiperidin-1-yl)ethan-1-one] | < 100 nM
COc1ccc2nc(C(F)(F)F)n(CC(=O)N3CC[C@H](NC4CC(OC)C4)C[C@H]3c3ncc(-c4cc5ccccc5nc4OC)[nH]3)c2c1 (stereo partly drawn) [2-(6-methoxy-2-(trifluoromethyl)-1H-benzo[d]imidazol-1-yl)-1-((2S,4S)-4-((3-methoxycyclobutyl)amino)-2-(5-(2-methoxyquinolin-3-yl)-1H-imidazol-2-yl)piperidin-1-yl)ethan-1-one] | < 100 nM
COc1ccc2nc(C(F)(F)F)n(CC(=O)N3C[C@H](NC4CCOC4)CC[C@H]3c3ncc(-c4cc5ccccc5nc4OC)[nH]3)c2c1 (stereo partly drawn) [2-(6-methoxy-2-(trifluoromethyl)-1H-benzo[d]imidazol-1-yl)-1-((2S,5R)-2-(5-(2-methoxyquinolin-3-yl)-1H-imidazol-2-yl)-5-((tetrahydrofuran-3-yl)amino)piperidin-1-yl)ethan-1-one] | < 100 nM
COc1ccc2nc(C)n(CC(=O)N3CCN(Cc4ccn(C)n4)CCC3c3ncc(-c4cc5ccccc5nc4OC)[nH]3)c2c1 (stereo not drawn) [2-(6-methoxy-2-methyl-1H-benzo[d]imidazol-1-yl)-1-(7-(5-(2-methoxyquinolin-3-yl)-1H-imidazol-2-yl)-4-((1-methyl-1H-pyrazol-3-yl)methyl)-1,4-diazepan-1-yl)ethan-1-one] | < 100 nM
COc1ccc2nc(C)n(CC(=O)N3CCN(Cc4nccs4)CCC3c3ncc(-c4cc5ccccc5nc4OC)[nH]3)c2c1 (stereo not drawn) [2-(6-methoxy-2-methyl-1H-benzo[d]imidazol-1-yl)-1-(7-(5-(2-methoxyquinolin-3-yl)-1H-imidazol-2-yl)-4-(thiazol-2-ylmethyl)-1,4-diazepan-1-yl)ethan-1-one] | < 100 nM
COc1ccc2nc(C)n(CC(=O)N3CCN(CC4CCOC4)C[C@H]3c3ncc(-c4cc5ccccc5nc4OC)[nH]3)c2c1 (stereo partly drawn) [2-(6-methoxy-2-methyl-1H-benzo[d]imidazol-1-yl)-1-((2S)-2-(5-(2-methoxyquinolin-3-yl)-1H-imidazol-2-yl)-4-((tetrahydrofuran-3-yl)methyl)piperazin-1-yl)ethan-1-one] | < 100 nM
COc1ccc2nc(C)n(CC(=O)N3CCN(CC4CCOC4)C[C@H]3c3ncc(/C=C/c4ccccc4)[nH]3)c2c1 (stereo partly drawn) [2-(6-methoxy-2-methyl-1H-benzo[d]imidazol-1-yl)-1-((2S)-2-(5-((E)-styryl)-1H-imidazol-2-yl)-4-((tetrahydrofuran-3-yl)methyl)piperazin-1-yl)ethan-1-one] | 1010 to 5000 nM
COc1ccc2nc(C)n(CC(=O)N3CCN(CC4CCOC4)C[C@H]3c3ncc(C#Cc4ccccn4)[nH]3)c2c1 (stereo partly drawn) [2-(6-methoxy-2-methyl-1H-benzo[d]imidazol-1-yl)-1-((2S)-2-(5-(pyridin-2-ylethynyl)-1H-imidazol-2-yl)-4-((tetrahydrofuran-3-yl)methyl)piperazin-1-yl)ethan-1-one] | 1010 to 5000 nM
COc1ccc2nc(C)n(CC(=O)N3CC[C@H](N4CCOCC4)C[C@H]3c3ncc(-c4cc5ccccc5nc4OC)[nH]3)c2c1 [2-(6-methoxy-2-methyl-1H-benzo[d]imidazol-1-yl)-1-((2S,4S)-2-(5-(2-methoxyquinolin-3-yl)-1H-imidazol-2-yl)-4-morpholinopiperidin-1-yl)ethan-1-one] | 100 to 500 nM
